US20220087961A1, “TREATMENT METHODS OF TRIPHENYL CALCILYTIC COMPOUNDS” (CALCILYTIX THERAPEUTICS, INC., priority 2020, published 2022)

Assays:
[1] = target: T1, CaSR (Homo sapiens, UniProt P41180); conditions: cell-based assays at 2 mM extracellular calcium; read-out: IC50, inhibition of the CaSR via allosteric modulation; cited from earlier work
T1 sequence (P41180 20-1078): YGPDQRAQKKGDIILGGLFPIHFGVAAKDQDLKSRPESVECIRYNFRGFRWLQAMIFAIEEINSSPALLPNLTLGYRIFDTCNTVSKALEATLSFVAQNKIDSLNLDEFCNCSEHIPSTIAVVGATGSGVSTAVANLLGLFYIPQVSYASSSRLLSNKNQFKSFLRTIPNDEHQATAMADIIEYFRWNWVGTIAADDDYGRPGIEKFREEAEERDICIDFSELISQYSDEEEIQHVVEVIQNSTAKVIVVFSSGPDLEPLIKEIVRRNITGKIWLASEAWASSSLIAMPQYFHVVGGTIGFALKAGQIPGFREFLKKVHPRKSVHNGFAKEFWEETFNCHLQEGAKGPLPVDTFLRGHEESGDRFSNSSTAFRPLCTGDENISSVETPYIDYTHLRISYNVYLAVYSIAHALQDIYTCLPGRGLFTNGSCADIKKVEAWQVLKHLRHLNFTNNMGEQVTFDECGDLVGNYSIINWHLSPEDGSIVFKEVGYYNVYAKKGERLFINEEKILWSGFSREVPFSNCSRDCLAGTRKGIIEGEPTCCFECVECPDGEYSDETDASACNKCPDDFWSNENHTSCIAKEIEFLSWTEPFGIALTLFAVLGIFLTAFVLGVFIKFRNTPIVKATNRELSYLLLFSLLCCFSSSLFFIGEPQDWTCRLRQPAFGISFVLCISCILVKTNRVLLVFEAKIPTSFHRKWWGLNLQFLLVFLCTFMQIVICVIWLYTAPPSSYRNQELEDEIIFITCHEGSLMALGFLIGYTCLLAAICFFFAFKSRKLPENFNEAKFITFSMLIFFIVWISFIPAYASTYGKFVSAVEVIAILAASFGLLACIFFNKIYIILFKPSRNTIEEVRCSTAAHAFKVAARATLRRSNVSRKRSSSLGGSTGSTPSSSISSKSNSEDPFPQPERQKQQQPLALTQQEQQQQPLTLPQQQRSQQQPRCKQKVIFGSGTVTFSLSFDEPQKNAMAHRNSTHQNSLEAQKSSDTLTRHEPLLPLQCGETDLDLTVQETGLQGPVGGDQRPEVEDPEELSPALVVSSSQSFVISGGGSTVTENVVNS

[2] = system: healthy volunteers and postmenopausal women with osteoporosis; conditions: cited from earlier work
[3] = system: subjects with ADH1; experiment: Phase 2b open-label dose-ranging study, Period 1 / Cohort 1; type: in vivo, human
Source text: A Phase 2b, open-label dose-ranging study is designed to evaluate the safety, tolerability, and efficacy of CLTX-305 to maintain normalized albumin-corrected blood calcium (cCa) in subjects with hypocalcemia due to ADH1. An overview scheme of the Phase 2b study is illustrated in FIG. 2.
Period 1: an inpatient stay that consists of 5 dosing days during which subjects will undergo a once-daily (QD) dose escalation for 3 days followed by 2 days of twice daily (BID) dosing at an individualized test dose of CLTX-305.
In Period 1, eligible Cohort 1 subjects are admitted to the NIH CC after completing screening tests. On days 1-3 of admission, Cohort 1 subjects will undergo single daily dosing and protocol-specified dose-escalation of CLTX-305 from the initial dose of 30 mg on Day 1, increasing to a maximum dose of 180 mg on Day 3. Based on the individualized responses to QD dose escalation an individualized dose of CLTX-305 will be chosen for BID administration on Days 4 and 5.
Days 1, 2 and 3 (QD Dose Escalations): Up to 8 subjects (minimum of 5) will undergo a single-dose, dose-escalation over the first 3 days of admission in Period 1. Morning doses will be administered on Days 1, 2 and 3, respectively, accompanied by frequent blood and urine sampling for 24-hours for PK/PD measures. CLTX-305 will be administered in the morning within 30 minutes prior to breakfast. If dose escalation is limited due to tolerability or hypercalcemia, then the investigator, in consultation with sponsor, may choose to interrupt the pre-specified dose escalation. In this case, the investigator, in consultation with sponsor, may choose to repeat the last well tolerated dose on Days 2 and 3, or titrate down as appropriate.
Days 4 and 5 (BID Dose Escalation): Based on each subject's individual PD responses to QD dose-escalation, an individualized dose of CLTX-305 will be chosen for BID dosing on Days 4 and 5. CLTX-305 will be administered once in the morning and once in the evening, within 30 minutes prior to breakfast and dinner. The dose selected should be based on each subject's response in cCa and/or PTH levels during the prior QD dosing (Days 1-3).
Days 1, 2 and 3 (QD Dose Escalations): Up to 8 subjects (minimum of 5) will undergo a single-dose, dose-escalation over the first 3 days of admission. Morning doses of 30, 90 and 180 mg will be administered on Days 1, 2 and 3, respectively, accompanied by frequent blood and urine sampling for 24-hours for PK/PD measures (For details of PK/PD assays and timepoints as shown in Table 4A-Table 4C, Table 5, and Table 6A-Table 6C CLTX-305 will be administered in the morning, with water, within 30 minutes prior to breakfast. If dose escalation is limited due to tolerability or hypercalcemia, the investigator, in consultation with sponsor, may choose to repeat the last well-tolerated dose on Days 2 and 3, or down-titrate, as appropriate (See below for dosing guidance algorithm).
In order to characterize both the pre-study calcemic status as well as changes associated with experimental interventions, the protocol will rely on frequent measurement of albumin-corrected blood calcium concentrations. Assays will be conducted according to specifications of the NIH Clinical Center Laboratory, Bethesda, Md. The main indicator of normal versus abnormal blood calcium levels will be based on the correction for serum or plasma albumin according to the formula corrected calcium (cCa)=measured total calcium (mg/dL)+0.8(4−albumin (g/dL)) OR measured total calcium (mmol/L)+0.2(4−albumin (g/dL)), recognizing that the total calcium reported in SI units (mmol/L) can be converted to conventional units (mg/dL) by multiplying by 4. Given that enrolled subjects are expected to have both normal and stable albumin levels, the measures of total calcium and cCa are likely to be similar throughout the time course of this study. […]

[4] = system: healthy subjects; conditions: single oral dose of up to 100 mg; cited from earlier work
[5] = system: rabbits; conditions: fetuses; cited from earlier work
[6] = preclinical; dose-limiting effects were mechanism-based serum calcium elevations; cited from earlier work
[7] = cited from earlier work
[8] = cited from earlier work; remark: listed apart in the source
[9] = non-clinical data; cited from earlier work
[10] = system: subjects with ADH1; experiment: Phase 2b open-label dose-ranging study, Period 2; type: in vivo, human
Experimental: Period 2: an inpatient stay that consists of 5 dosing days during which subjects will receive BID doses of CLTX-305 based on individual responses from Period 1 (for subjects who complete Period 1) or review of aggregate data from Period 1 (for subjects in Cohort 2 entering Period 2 without prior exposure to CLTX-305). The initial dose, dose level 1 (DL1) will be administered for 2 days (48 hours) with cCa monitoring. Participants will undergo encaleret dose up- or down-titration depending on cCa levels, with a potential increase in dose if cCa remains below the lower limit of normal and potential decrease in dose if cCa is greater than or equal to the upper limit of normal. A final test day (Day 5) will include frequent blood and urine sampling to collect 24-hour PK/PD profiles after at least 3 consecutive days of dosing (at either DL1 or DL2).
In Period 2, eligible Cohort 1 subjects, who have completed Period 1, may return after at least 8 weeks for admission to NIH for Period 2. After all Cohort 1 subjects have finished Period 1 and the data analyzed, the Sponsor will open enrolment for Cohort 2 subjects. Eligible Cohort 2 subjects may enroll directly into Period 2, after completing the screening and consent process per protocol. In Period 2 all subjects will initiate CLTX-305 BID dosing given within 30 minutes prior to breakfast and dinner on Days 1 and 2. cCa concentrations will be monitored frequently throughout Period 2, and CLTX-305 doses will be up- or down-titrated as needed to target normal cCa concentrations. Assessment of the 24-hour PK/PD profile of CLTX-305 with BID dosing will be conducted on Day 5.
As a result, all remaining subjects in Period 2 will receive an initial CLTX-305 90 mg BID dose for at least 3-4 doses for evaluation of safety, tolerability and the ability to modulate cCa levels. The CLTX-305 dose will be up- or down-titrated as needed to maintain cCa levels below 10 mg/dL and blood phosphorus levels above the lower limit of normal. […]

[11] = system: subjects with ADH1; conditions: subjects with ADH1, sample size of 5; cited from earlier work
[12] = humans, most single doses or steady-state
[13] = not significant when body weight taken into account

Cc1cc(-c2ccccc2[C@@H](C)OC[C@H](O)CNC(C)(C)Cc2ccc(Cl)c(F)c2)ccc1C(=O)O [CLTX-305, encaleret]
IC50 [1]: 86.2 nM
acute safety and tolerability ([2]; 5-100 mg, non-ADH1 subjects): acutely safe and well tolerated
safety issues or signals ([2]; acute dosing up to 100 mg, chronic dosing up to 15 mg QD, over 1300 healthy males and post-menopausal women): no specific safety issues or signals were seen
subjects with blood calcium above the upper limit of the laboratory reference range ([2]; chronic once-daily dosing up to 15 mg, postmenopausal women, long-term trials): up to 30%
serious adverse events related to hyper- or hypocalcemia ([2]; osteoporosis program, postmenopausal women): No serious adverse events (SAEs)
tolerability in humans during chronic treatment ([2]; up to and beyond 12 months): generally well tolerated
serious adverse events ([3]; Period 1): no serious adverse events reported
plasma exposure, dose relation (FIG. 8) ([3]; Period 1, 30-180 mg): dose proportional increase in plasma exposure
Number of AEs ([3]; Period 1, N=6): 9 n
tolerability ([3]; Period 1, escalating oral doses once or twice daily over 5 days): well-tolerated
PTH, mean level over 24 hours by day 5 ([3]; Period 1, n=6, mean±SD, baseline 3.4±4.5): 64.8 ± 49.6 pg/mL
Magnesium, 24-hour day 5 mean ([3]; Period 1, n=6, baseline 1.6±0.4): 2.0 ± 0.5 mg/dL
Phosphorus, 24-hour day 5 mean ([3]; Period 1, n=6, baseline 4.5±0.7): 2.9 ± 0.5 mg/dL
Albumin-corrected blood calcium (cCa), 24-hour mean on day 5 ([3]; Period 1, n=6, baseline 7.6±0.6): 9.0 ± 0.5 mg/dL
Twenty-four hour urine calcium on day 5 ([3]; Period 1, n=6, screening 436±255 on conventional therapy): 63 ± 127 mg/day
subjects in whom urinary calcium excretion became normal ([3]; Period 1, of 6): 3 subjects
subjects in whom urinary calcium excretion became undetectable ([3]; Period 1, of 6): 3 subjects
QTc prolongation [4]: no clinically meaningful QTc prolongation
dose at which incidence of fetal skeletal anomalies (fusion of the sternebra) was increased [5]: ≥ 30 mg/kg
off-target or organ-specific toxicities [6]: no off-target or other tissue or organ-specific toxicities were identified
dose proportionality of plasma concentrations ([7]; 5, 10, 15, 30, 50 and 100 mg, fasted state): Dose-proportional increases
age-related or race differences in pharmacokinetics ([7]; US population vs. Japanese subjects): No significant age-related or race differences
half-life of CLTX-305 at steady state ([7]; as stated in the study assessment section): 10 to 14 h
food effect on plasma concentrations ([7]; dose range 5-100 mg): without significant food effect
tmax median [7, 12]: 1.5 h
tmax range [7, 12]: 0.75 to 3 h
elimination half-life (t1/2) after single doses ([7]; humans, single doses): approximately 6.5 hours
elimination half-life (t1/2) at steady state ([7]; humans, steady state (14 days)): 11 to 14 h
excretion of unchanged CLTX-305 and metabolites into urine ([7]; humans, total of parent and metabolite): < 5%
AUC higher in females [7, 13]: approximately 37%
Cmax higher in females [7, 13]: ~30%
accumulation ([7]; once daily (QD) for two weeks, Japanese postmenopausal women): minimal accumulation
increase in AUC0-24 on co-administration with ketoconazole [8]: approximately 2 ×
increase in Cmax on co-administration with ketoconazole [8]: approximately 1.67 ×
main route of elimination [9]: fecal excretion was the main route of elimination
serious adverse events ([10]; Period 2 (Periods 1 and 2)): no serious adverse events reported
tolerability ([10]; Period 2 (Periods 1 and 2), once or twice daily over 5 days): well-tolerated
Number of AEs ([10]; Period 2, n=13): 12 n

CC(C)(CC1Cc2ccccc2C1)NC[C@@H](O)COc1cc(CCC(=O)O)ccc1C#N [NPSP795]
dose-response on iPTH [11]: preliminary evidence for a dose-response on iPTH
